# Test system: IFNα-Induced STAT Phosphorylation in Human Whole Blood
# Assay: IFNα-Induced STAT Phosphorylation in Human Whole Blood
# Format: cell-based
# Details: 1 h incubation with compound, 1000 U/mL recombinant human IFNα A/D for 15 min, pSTAT5 (pY694) median fluorescence intensity in CD3 positive population, read-out: hWB IC50
# Method: IFNα-Induced STAT Phosphorylation in Human Whole Blood
# After an hour long incubation with compound, human whole blood (drawn with either EDTA or ACD-A as anti-coagulant) was stimulated with 1000 U/mL recombinant human IFNα A/D (R&D Systems 11200-2) for 15 min. The stimulation was stopped by adding Fix/Lyse buffer (BD 558049). Cells were stained with a CD3 FITC antibody (BD 555916), washed, and permeabilized on ice using Perm III buffer (BD 558050). […] The amount of pSTAT5 expression was quantitated by median fluorescence intensity after gating on the CD3 positive population.
# IFNα-Induced STAT Phosphorylation in Human Whole Blood Inhibition Data
row,SMILES,IC50
1,"[2H]C([2H])([2H])NC(=O)c1cnc(Nc2cc(C(F)(F)F)n(C)n2)cc1Nc1cccc(-c2ncc(F)cn2)c1OC [Example 64, 4-((3-(5-fluoropyrimidin-2-yl)-2-methoxyphenyl)amino)-N-(methyl-d3)-6-((1-methyl-5-(trifluoromethyl)-1H-pyrazol-3-yl)amino)nicotinamide]",75 nM
2,"[2H]C([2H])([2H])NC(=O)c1nnc(Nc2ccc(C(C)(C)O)cn2)cc1Nc1cccc(-c2ncc(F)cn2)c1OC [Example 103, 4-((3-(5-fluoropyrimidin-2-yl)-2-methoxyphenyl)amino)-6-((5-(2-hydroxypropan-2-yl)pyridin-2-yl)amino)-N-(methyl-d3)pyridazine-3-carboxamide]",79 nM
3,"[2H]C([2H])([2H])NC(=O)c1nnc(Nc2cn(CC)nn2)cc1Nc1cccc(-c2ncc(F)cn2)c1OC [Example 89, 6-((1-ethyl-1H-1,2,3-triazol-4-yl)amino)-4-((3-(5-fluoropyrimidin-2-yl)-2-methoxyphenyl)amino)-N-(methyl-d3)pyridazine-3-carboxamide]",250 nM
4,[2H]C([2H])([2H])NC(=O)c1nnc(NC(=O)C2CC2)cc1Nc1cccc(-c2ncc(N3CCOC3=O)cn2)c1OC [Example 113],36 nM
5,"[2H]C([2H])([2H])NC(=O)c1cnc(Nc2ccccn2)cc1Nc1cccc(-c2ncc(F)cn2)c1OC [Example 70, 4-((3-(5-fluoropyrimidin-2-yl)-2-methoxyphenyl)amino)-N-(methyl-d3)-6-(pyridin-2-ylamino)nicotinamide]",90 nM
6,"[2H]C([2H])([2H])NC(=O)c1nnc(NC(=O)C2CC2)cc1Nc1cccc(-c2ncc(C3(O)CCC3)cn2)c1OC [Example 27, 6-(cyclopropanecarboxamido)-4-((3-(5-(1-hydroxycyclobutyl)pyrimidin-2-yl)-2-methoxyphenyl)amino)-N-(methyl-d3)pyridazine-3-carboxamide]",63 nM
7,"[2H]C([2H])([2H])NC(=O)c1nnc(NC(=O)C2CC2)cc1Nc1cccc(-c2ncc(C(=O)N3CCC3)cn2)c1OC [Example 48, 4-((3-(5-(azetidine-1-carbonyl)pyrimidin-2-yl)-2-methoxyphenyl)amino)-6-(cyclopropanecarboxamido)-N-(methyl-d3)pyridazine-3-carboxamide]",118 nM
8,"[2H]C([2H])([2H])NC(=O)c1nnc(Nc2cnc(C(C)(C)O)cn2)cc1Nc1cccc(-c2ncc(F)cn2)c1OC [Example 101, 4-((3-(5-fluoropyrimidin-2-yl)-2-methoxyphenyl)amino)-6-((5-(2-hydroxypropan-2-yl)pyrazin-2-yl)amino)-N-(methyl-d3)pyridazine-3-carboxamide]",93 nM
9,"[2H]C([2H])([2H])NC(=O)c1nnc(NC(=O)C2CC2)cc1Nc1cccc(-c2cnc(N3CCOCC3)cn2)c1OC [Example 57, 6-(Cyclopropanecarboxamido)-4-((2-methoxy-3-(5-morpholinopyrazin-2-yl)phenyl)amino)-N-(methyl-d3)pyridazine-3-carboxamide]",117 nM
10,"[2H]C([2H])([2H])NC(=O)c1nnc(Nc2cc(C(C)(C)O)n(C)n2)cc1Nc1cc(F)cc(-c2ncccn2)c1OC [Example 84, 4-((5-fluoro-2-methoxy-3-(pyrimidin-2-yl)phenyl)amino)-6-((5-(2-hydroxypropan-2-yl)-1-methyl-1H-pyrazol-3-yl)amino)-N-(methyl-d3)pyridazine-3-carboxamide]",19 nM
11,"[2H]C([2H])([2H])NC(=O)c1nnc(Nc2cc3n(n2)CCN(C)C3=O)cc1Nc1cccc(-c2ncc(F)cn2)c1OC [Example 107, 4-((3-(5-Fluoropyrimidin-2-yl)-2-methoxyphenyl)amino)-N-(methyl-d3)-6-((5-methyl-4-oxo-4,5,6,7-tetrahydropyrazolo[1,5-a]pyrazin-2-yl)amino)pyridazine-3-carboxamide]",81 nM
12,[2H]C([2H])([2H])NC(=O)c1nnc(NC(=O)C2CC2)cc1Nc1cccc(-c2ccc(C(=O)N3CCCC3)cn2)c1OC [Example 45],218 nM
13,"[2H]C([2H])([2H])NC(=O)c1nnc(Nc2ccc(OC)nn2)cc1Nc1cccc(-c2ncc(F)cn2)c1OC [Example 97, 4-((3-(5-fluoropyrimidin-2-yl)-2-methoxyphenyl)amino)-6-((6-methoxypyridazin-3-yl)amino)-N-(methyl-d3)pyridazine-3-carboxamide]",80 nM
14,"[2H]C([2H])([2H])NC(=O)c1nnc(Nc2cn(C)nn2)cc1Nc1cc(F)cc(-c2ncccn2)c1OC [Example 93, 4-((5-fluoro-2-methoxy-3-(pyrimidin-2-yl)phenyl)amino)-N-(methyl-d3)-6-((1-methyl-1H-1,2,3-triazol-4-yl)amino)pyridazine-3-carboxamide]",413 nM
15,"[2H]C([2H])([2H])NC(=O)c1cnc(Nc2ccc(C(F)(F)F)nn2)cc1Nc1cccc(-c2ncccn2)c1OC [Example 76, 4-((2-methoxy-3-(pyrimidin-2-yl)phenyl)amino)-N-(methyl-d3)-6-((6-(trifluoromethyl)pyridazin-3-yl)amino)nicotinamide]",77 nM
16,"[2H]C([2H])([2H])NC(=O)c1nnc(NC(=O)C2CC2)cc1Nc1cccc(-c2cnc(C3(O)CCOC3)cn2)c1OC (stereo not shown) [Example 34, 6-(cyclopropanecarboxamido)-4-((3-(5-(3-hydroxytetrahydrofuran-3-yl)pyrazin-2-yl)-2-methoxyphenyl)amino)-N-(methyl-d3)pyridazine-3-carboxamide]",36 nM
17,[2H]C([2H])([2H])NC(=O)c1nnc(NC(=O)C2CC2)cc1Nc1cccc(-c2ncc(N3CCN(C)C3=O)cn2)c1OC [Example 116],73 nM
18,"[2H]C([2H])([2H])NC(=O)c1nnc(NC(=O)C2CC2)cc1Nc1cccc(-c2nccc(C#N)n2)c1OC [Example 3, 4-((3-(4-cyanopyrimidin-2-yl)-2-methoxyphenyl)amino)-6-(cyclopropanecarboxamido)-N-(methyl-d3)pyridazine-3-carboxamide]",144 nM
19,"[2H]C([2H])([2H])NC(=O)c1nnc(NC(=O)C2CC2)cc1Nc1cc(F)cc(-c2ncc(C(C)(O)CF)cn2)c1OC (stereo not shown) [Example 32, 6-(cyclopropanecarboxamido)-4-((5-fluoro-3-(5-(1-fluoro-2-hydroxypropan-2-yl)pyrimidin-2-yl)-2-methoxyphenyl)amino)-N-(methyl-d3)pyridazine-3-carboxamide]",71 nM
20,"[2H]C([2H])([2H])NC(=O)c1cnc(Nc2cnc(C#N)cn2)cc1Nc1cccc(-c2ncc(F)cn2)c1OC [Example 71, 6-((5-cyanopyrazin-2-yl)amino)-4-((3-(5-fluoropyrimidin-2-yl)-2-methoxyphenyl)amino)-N-(methyl-d3)nicotinamide]",278 nM
21,"[2H]C([2H])([2H])NC(=O)c1cnc(NC(=O)C2CC2)cc1Nc1cccc(-c2cnc(-n3cncn3)cn2)c1OC [Example 60, 4-((3-(5-(1H-1,2,4-triazol-1-yl)pyrazin-2-yl)-2-methoxyphenyl)amino)-6-(cyclopropanecarboxamido)-N-(methyl-d3)nicotinamide]",1040 nM
22,"[2H]C([2H])([2H])NC(=O)c1cnc(Nc2cc(Cl)n(C)n2)cc1Nc1cccc(-c2ncc(F)cn2)c1OC [Example 66, 6-((5-chloro-1-methyl-1H-pyrazol-3-yl)amino)-4-((3-(5-fluoropyrimidin-2-yl)-2-methoxyphenyl)amino)-N-(methyl-d3)nicotinamide]",146 nM
23,"[2H]C([2H])([2H])NC(=O)c1nnc(NC(=O)C2CC2)cc1Nc1cc(F)cc(-c2ccc(C(C)(C)O)nn2)c1OC [Example 22, 6-(cyclopropanecarboxamido)-4-((5-fluoro-3-(6-(2-hydroxypropan-2-yl)pyridazin-3-yl)-2-methoxyphenyl)amino)-N-(methyl-d3)pyridazine-3-carboxamide]",120 nM
24,"[2H]C([2H])([2H])NC(=O)c1nnc(NC(=O)C2CC2)cc1Nc1cc(F)cc(-c2ccc(C(=O)N(C)C)cn2)c1OC [Example 44, 6-(cyclopropanecarboxamido)-4-((3-(5-(dimethylcarbamoyl)pyridin-2-yl)-5-fluoro-2-methoxyphenyl)amino)-N-(methyl-d3)pyridazine-3-carboxamide]",109 nM
25,"[2H]C([2H])([2H])NC(=O)c1nnc(Nc2cc(C(C)(C)O)n(C)n2)cc1Nc1cc(F)cc(-c2ncc(F)cn2)c1OC [Example 83, 4-((5-fluoro-3-(5-fluoropyrimidin-2-yl)-2-methoxyphenyl)amino)-6-((5-(2-hydroxypropan-2-yl)-1-methyl-1H-pyrazol-3-yl)amino)-N-(methyl-d3)pyridazine-3-carboxamide]",77 nM
26,"[2H]C([2H])([2H])NC(=O)c1nnc(NC(=O)C2CC2)cc1Nc1cc(F)cc(-c2cnc(C(C)O)cn2)c1OC (stereo not shown) [Example 24, 6-(cyclopropanecarboxamido)-4-((5-fluoro-3-(5-(1-hydroxyethyl)pyrazin-2-yl)-2-methoxyphenyl)amino)-N-(methyl-d3)pyridazine-3-carboxamide]",167 nM
27,"[2H]C([2H])([2H])NC(=O)c1nnc(Nc2ccn(C3CC3)n2)cc1Nc1cccc(-c2ncc(F)cn2)c1OC [Example 78, 6-((1-cyclopropyl-1H-pyrazol-3-yl)amino)-4-((3-(5-fluoropyrimidin-2-yl)-2-methoxyphenyl)amino)-N-(methyl-d3)pyridazine-3-carboxamide]",192 nM
28,"[2H]C([2H])([2H])NC(=O)c1nnc(NC(=O)C2CC2)cc1Nc1cccc(-c2nccc(C(=O)N(C)C)n2)c1OC [Example 49, 6-(cyclopropanecarboxamido)-4-((3-(4-(dimethylcarbamoyl)pyrimidin-2-yl)-2-methoxyphenyl)amino)-N-(methyl-d3)pyridazine-3-carboxamide]",327 nM
